Reference: the supplement of paper PMC9663587

Columns and labels:
[1] = compound: CN(C)C/C=C/C(=O)Nc1ccc(C(=O)Nc2cccc(Nc3ncc(Cl)c(-c4c[nH]c5ccccc45)n3)c2)cc1 [THZ1]; test: GR value, 72 h; higher = faster growth (1 = untreated, <0 = killing);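 note: breast cancer and non-malignant breast epithelial lines, nine half-log doses, viable cells counted by Hoechst and LIVE/DEAD dye imaging versus time-zero plates and DMSO controls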
[2] = compound: CC(=O)c1c(C)c2cnc(Nc3ccc(N4CCN(CCOCCOCCOCCNC(=O)COc5cccc6c5C(=O)N(C5CCC(=O)NC5=O)C6=O)CC4)cn3)nc2n(C2CCCC2)c1=O [BSJ-03-123]; test: as above
[3] = compound: CCN1CCN(Cc2ccc(Nc3ncc(F)c(-c4cc(F)c5nc(C)n(C(C)C)c5c4)n3)nc2)CC1; test: as above
[4] = compound: T1, CN(C)C(=O)c1cc2cnc(Nc3ccc(N4CCNCC4)cn3)nc2n1C1CCCC1 [LEE011/Ribociclib]; test: as above
[5] = compound: CC(=O)c1c(C)c2cnc(Nc3ccc(N4CCNCC4)cn3)nc2n(C2CCCC2)c1=O; test: as above
[6] = compound: CCOc1cc2ncc(C#N)c(Nc3ccc(OCc4ccccn4)c(Cl)c3)c2cc1NC(=O)/C=C/CN(C)C [Neratinib/HKI272]; test: as above
[7] = compound: T2, CN1CC[C@H](c2c(O)cc(O)c3c(=O)cc(-c4ccccc4Cl)oc23)[C@H](O)C1 [Flavopiridol]; test: as above
[8] = compound: CCc1cnn2c(NCc3ccc[n+]([O-])c3)cc(N3CCCC[C@H]3CCO)nc12; test: as above
[9] = compound: CCN1CCN(Cc2ccc(Nc3ncc(F)c(-c4cc(F)c5nc(C)n(C(C)C)c5c4)n3)nc2)CC1; test: increase in dead-cell fraction, 72 h; higher = more death;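 note: breast cancer cell lines in 384-well plates, stained with Hoechst plus LIVE/DEAD far red dye and imaged, cells above an LDR intensity threshold counted dead, Hoechst-negative corpses included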
[10] = compound: T1, LEE011/Ribociclib; test: as above
[11] = compound: CC(=O)c1c(C)c2cnc(Nc3ccc(N4CCNCC4)cn3)nc2n(C2CCCC2)c1=O; test: as above
[12] = compound: T2, Flavopiridol; test: as above

MGH312
GR value ([1]; 0.0001 µM): 1.22 GR
GR value ([1]; 0.0003162 µM): 0.923 GR
GR value ([1]; 0.001 µM): 0.962 GR
GR value ([1]; 0.003162 µM): 0.662 GR
GR value ([1]; 0.01 µM): 0.287 GR
GR value ([1]; 0.03162 µM): -0.892 GR
GR value ([1]; 0.1 µM): -0.905 GR
GR value ([1]; 0.3162 µM): -0.92 GR
GR value ([1]; 1 µM): -0.934 GR
GR value ([2]; 0.001 µM): 1.11 GR
GR value ([2]; 0.003162 µM): 1.25 GR
GR value ([2]; 0.01 µM): 1.02 GR
GR value ([2]; 0.03162 µM): 1.22 GR
GR value ([2]; 0.1 µM): 1.12 GR
GR value ([2]; 0.3162 µM): 0.909 GR
GR value ([2]; 1 µM): 0.827 GR
GR value ([2]; 3.162 µM): 0.933 GR
GR value ([2]; 10 µM): -0.91 GR
GR value ([3]; 0.001 µM): 1.06 GR
GR value ([3]; 0.003162 µM): 1.17 GR
GR value ([3]; 0.01 µM): 1.15 GR
GR value ([3]; 0.03162 µM): 1.12 GR
GR value ([3]; 0.1 µM): 0.975 GR
GR value ([3]; 0.3162 µM): 1.03 GR
GR value ([3]; 1 µM): 0.836 GR
GR value ([3]; 3.162 µM): 0.308 GR
GR value ([3]; 10 µM): -0.466 GR
GR value ([4]; 0.001 µM): 1.21 GR
GR value ([4]; 0.003162 µM): 1.13 GR
GR value ([4]; 0.01 µM): 1.08 GR
GR value ([4]; 0.03162 µM): 1.21 GR
GR value ([4]; 0.1 µM): 0.945 GR
GR value ([4]; 0.3162 µM): 0.964 GR
GR value ([4]; 1 µM): 0.894 GR
GR value ([4]; 3.162 µM): 0.89 GR
GR value ([4]; 10 µM): 1.33 GR
GR value ([5]; 0.0003162 µM): 1.2 GR
GR value ([5]; 0.001 µM): 1.09 GR
GR value ([5]; 0.003162 µM): 1.2 GR
GR value ([5]; 0.01 µM): 1.04 GR
GR value ([5]; 0.03162 µM): 1.09 GR
GR value ([5]; 0.1 µM): 1.21 GR
GR value ([5]; 0.3162 µM): 1.11 GR
GR value ([5]; 1 µM): 1.18 GR
GR value ([5]; 3.162 µM): 1.04 GR
GR value ([6]; 0.0003162 µM): 0.953 GR
GR value ([6]; 0.001 µM): 1.02 GR
GR value ([6]; 0.003162 µM): 0.997 GR
GR value ([6]; 0.01 µM): 0.787 GR
GR value ([6]; 0.03162 µM): 0.606 GR
GR value ([6]; 0.1 µM): 0.489 GR
GR value ([6]; 0.3162 µM): 0.502 GR
GR value ([6]; 1 µM): 0.238 GR
GR value ([6]; 3.162 µM): -0.252 GR
GR value ([7]; 0.0001 µM): 1.11 GR
GR value ([7]; 0.0003162 µM): 1.12 GR
GR value ([7]; 0.001 µM): 0.95 GR
GR value ([7]; 0.003162 µM): 0.74 GR
GR value ([7]; 0.01 µM): 0.921 GR
GR value ([7]; 0.03162 µM): 0.947 GR
GR value ([7]; 0.1 µM): 0.503 GR
GR value ([7]; 0.3162 µM): -0.521 GR
GR value ([7]; 1 µM): -0.945 GR
GR value ([8]; 0.0001 µM): 0.917 GR
GR value ([8]; 0.0003162 µM): 1.1 GR
GR value ([8]; 0.001 µM): 1.09 GR
GR value ([8]; 0.003162 µM): 1.04 GR
GR value ([8]; 0.01 µM): 0.584 GR
GR value ([8]; 0.03162 µM): -0.846 GR
GR value ([8]; 0.1 µM): -0.927 GR
GR value ([8]; 0.3162 µM): -0.951 GR
GR value ([8]; 1 µM): -0.949 GR
increase in dead-cell fraction ([9]; 0.001 µM): -0.0051
increase in dead-cell fraction ([9]; 0.003162 µM): -0.0048
increase in dead-cell fraction ([9]; 0.01 µM): -0.0002
increase in dead-cell fraction ([9]; 0.03162 µM): -0.0029
increase in dead-cell fraction ([9]; 0.1 µM): -0.0075
increase in dead-cell fraction ([9]; 0.3162 µM): 0.0016
increase in dead-cell fraction ([9]; 1 µM): -0.0026
increase in dead-cell fraction ([9]; 3.162 µM): 0.0207
increase in dead-cell fraction ([9]; 10 µM): 0.208
increase in dead-cell fraction ([10]; 0.001 µM): -0.0153
increase in dead-cell fraction ([10]; 0.003162 µM): -0.0081
increase in dead-cell fraction ([10]; 0.01 µM): 0.0061
increase in dead-cell fraction ([10]; 0.03162 µM): -0.0004
increase in dead-cell fraction ([10]; 0.1 µM): 0.001
increase in dead-cell fraction ([10]; 0.3162 µM): -0.0068
increase in dead-cell fraction ([10]; 1 µM): 0.006
increase in dead-cell fraction ([10]; 3.162 µM): 0.004
increase in dead-cell fraction ([10]; 10 µM): -0.0032
increase in dead-cell fraction ([11]; 0.0003162 µM): -0.0083
increase in dead-cell fraction ([11]; 0.001 µM): -0.0121
increase in dead-cell fraction ([11]; 0.003162 µM): 0.0011
increase in dead-cell fraction ([11]; 0.01 µM): -0.0042
increase in dead-cell fraction ([11]; 0.03162 µM): 0.001
increase in dead-cell fraction ([11]; 0.1 µM): -0.0039
increase in dead-cell fraction ([11]; 0.3162 µM): 0.003
increase in dead-cell fraction ([11]; 1 µM): 0.0034
increase in dead-cell fraction ([11]; 3.162 µM): 0.0037
increase in dead-cell fraction ([12]; 0.0001 µM): -0.004
increase in dead-cell fraction ([12]; 0.0003162 µM): -0.0016
increase in dead-cell fraction ([12]; 0.001 µM): -0.0079
increase in dead-cell fraction ([12]; 0.003162 µM): 0.013
increase in dead-cell fraction ([12]; 0.01 µM): 0.0083
increase in dead-cell fraction ([12]; 0.03162 µM): -0.0027
increase in dead-cell fraction ([12]; 0.1 µM): 0.0209
increase in dead-cell fraction ([12]; 0.3162 µM): 0.249
increase in dead-cell fraction ([12]; 1 µM): 0.705
